Measured values from ChEMBL document CHEMBL1255186, “A novel 18F-labeled pyridyl benzofuran derivative for imaging of β-amyloid plaques in Alzheimer's brains” (Bioorg Med Chem Lett, 2010).
The source made the active and inactive calls. No cut-off for these calls is given here.

Legend:
[1] = test system: Hippocampus; experiment: Reduction of amyloid beta40 level in Tg2576 mouse hippocampus at 11.1 MBq; format: functional, tissue-based; conditions: 11.1 M, tested as the 18F-labelled form
[2] = species on record: Mus musculus; experiment: Reduction of amyloid beta40 level in Tg2576 mouse entorhinal cortex at 11.1 MBq; format: functional, tissue-based; conditions: 11.1 M, tested as the 18F-labelled form
[3] = species on record: Mus musculus; experiment: Reduction of amyloid beta40 level in Tg2576 mouse dentate gyrus at 11.1 MBq; format: functional, tissue-based; conditions: 11.1 M, tested as the 18F-labelled form
[4] = test system: Cortex; experiment: Reduction of amyloid beta40 level in Tg2576 mouse cortex at 11.1 MBq; format: functional, tissue-based; conditions: 11.1 M, tested as the 18F-labelled form
[5] = test system: Bone; experiment: Biodistribution in mouse bone at 444 kBq/50 uL after 2 mins; format: ADME, organism-based, Bone element; conditions: in vivo
[6] = Displacement of [125I]IMPY from amyloid beta 1-42
[7] = test system: Bone; experiment: Biodistribution in mouse bone at 444 kBq/50 uL after 60 mins; format: ADME, organism-based, Bone element; conditions: in vivo, 1 h
[8] = test system: Bone; experiment: Biodistribution in mouse bone at 444 kBq/50 uL after 10 mins; format: ADME, organism-based, Bone element; conditions: in vivo
[9] = test system: Blood; experiment: Biodistribution in mouse blood at 444 kBq/50 uL after 60 mins; format: ADME, organism-based; conditions: in vivo, 1 h
[10] = test system: Blood; experiment: Biodistribution in mouse blood at 444 kBq/50 uL after 30 mins; format: ADME, organism-based; conditions: in vivo, 0.5 h
[11] = test system: Brain; experiment: Biodistribution in mouse brain at 444 kBq/50 uL after 60 mins; format: ADME, organism-based; conditions: in vivo, 1 h
[12] = test system: Brain; experiment: Biodistribution in mouse brain at 444 kBq/50 uL after 2 mins; format: ADME, organism-based; conditions: in vivo
[13] = test system: Brain; experiment: Biodistribution in mouse brain at 444 kBq/50 uL after 10 mins; format: ADME, organism-based; conditions: in vivo
[14] = test system: Blood; experiment: Biodistribution in mouse blood at 444 kBq/50 uL after 2 mins; format: ADME, organism-based; conditions: in vivo
[15] = test system: Blood; experiment: Biodistribution in mouse blood at 444 kBq/50 uL after 10 mins; format: ADME, organism-based; conditions: in vivo
[16] = test system: Brain; experiment: Biodistribution in mouse brain at 444 kBq/50 uL after 30 mins; format: ADME, organism-based; conditions: in vivo, 0.5 h
[17] = test system: Bone; experiment: Biodistribution in mouse bone at 444 kBq/50 uL after 30 mins; format: ADME, organism-based, Bone element; conditions: in vivo, 0.5 h

| Compound | Activity [1] | Activity [2] | Activity [3] | Activity [4] | Drug uptake [5] [% ID/g] | Ki [6] [pM] | Drug uptake [7] [% ID/g] | Drug uptake [8] [% ID/g] | Drug uptake [9] [% ID/g] | Drug uptake [10] [% ID/g] | Drug uptake [11] [% ID/g] | Drug uptake [12] [% ID/g] | Drug uptake [13] [% ID/g] | Drug uptake [14] [% ID/g] | Drug uptake [15] [% ID/g] | Drug uptake [16] [% ID/g] | Drug uptake [17] [% ID/g] |
| --- | --- | --- | --- | --- | --- | --- | --- | --- | --- | --- | --- | --- | --- | --- | --- | --- | --- |
| CN(C)c1ccc(-c2cc3cc(OCCOCCOCCF)ccc3o2)cn1 | Active | Active | Active | Active | – | – | – | – | – | – | – | – | – | – | – | – | – |
| CN(C)c1ccc(-c2cc3cc(OCCOCCOCC[18F])ccc3o2)cn1 | – | – | – | – | 1.61 | 900 | 1.42 | 1.33 | 1.98 | 1.76 | 2.44 | 5.16 | 3.75 | 2.83 | 2.13 | 2.78 | 1.11 |
